In PubChem BioAssay AID2060897 (Molecular Pharmacology Branch, DTP, NCI, 2025):

Test system: 966289-007-R4-J1-PDC complex spheroid viability
Assay: Anticancer human tumor 966289-007-R4-J1-PDC patient-derived pancreatic adenocarcinoma cell line growth inhibition [RAS]
Conditions: for IC50: curve of first compound; for viability, T/C: stronger effect = lower value; active = viability on the fitted dose curve at most 10% of control; inactive = the rest
Procedure, shortened: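 Tumour cells grown as complex spheroids with HUVEC endothelial cells and mesenchymal stem cells, treated with RAS pathway inhibitor combinations. Each agent spans half-log steps from near clinical Cmax, or 10 microM where Cmax is unknown.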
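Also: spheroids exposed to agents for one week before readout.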
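For viability, T/C in this document: percent viability relative to DMSO vehicle control wells as 100%.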

CCN1CCN(Cc2ccc(Nc3ncc(F)c(-c4cc(F)c5nc(C)n(C(C)C)c5c4)n3)nc2)CC1 + CCn1c(-c2cccnc2C(C)OC)c2c3cc(ccc31)N1CCOC(CC(NC(=O)C(C(C)C)N(C)C(=O)C3(F)CCN(C(=O)C#CC(C)(C)N(C)C)CC3)C(=O)N3CCCC(N3)C(=O)OCC(C)(C)C2)C1
inactive: viability, T/C (second compound 0.000949 µM, first compound 0.00316 µM) 107% | viability, T/C (second compound 0.000949 µM, first compound 0.01 µM) 84.9% | viability, T/C (second compound 0.000949 µM, first compound 0.0316 µM) 104% | viability, T/C (second compound 0.000949 µM, first compound 0.1 µM) 81.3% | viability, T/C (second compound 0.000949 µM, first compound 0.316 µM) 85.6% | viability, T/C (second compound 0.000949 µM, first compound 1 µM) 79.3% | viability, T/C (second compound 0.003 µM, first compound 0.00316 µM) 106% | viability, T/C (second compound 0.003 µM, first compound 0.01 µM) 78.2% | viability, T/C (second compound 0.003 µM, first compound 0.0316 µM) 93.7% | viability, T/C (second compound 0.003 µM, first compound 0.1 µM) 79.8% | viability, T/C (second compound 0.003 µM, first compound 0.316 µM) 93.4% | viability, T/C (second compound 0.003 µM, first compound 1 µM) 84.1% | viability, T/C (second compound 0.00949 µM, first compound 0.00316 µM) 69.9% | viability, T/C (second compound 0.00949 µM, first compound 0.01 µM) 90.2% | viability, T/C (second compound 0.00949 µM, first compound 0.0316 µM) 104% | viability, T/C (second compound 0.00949 µM, first compound 0.1 µM) 90.4% | viability, T/C (second compound 0.00949 µM, first compound 0.316 µM) 90% | viability, T/C (second compound 0.00949 µM, first compound 1 µM) 78.5% | viability, T/C (second compound 0.03 µM, first compound 0.00316 µM) 77.8% | viability, T/C (second compound 0.03 µM, first compound 0.01 µM) 83.3% | viability, T/C (second compound 0.03 µM, first compound 0.0316 µM) 99.5% | viability, T/C (second compound 0.03 µM, first compound 0.1 µM) 81.4% | viability, T/C (second compound 0.03 µM, first compound 0.316 µM) 90.9% | viability, T/C (second compound 0.03 µM, first compound 1 µM) 78.9% | viability, T/C (second compound 0.0949 µM, first compound 0.00316 µM) 78.4% | viability, T/C (second compound 0.0949 µM, first compound 0.01 µM) 99.6% | viability, T/C (second compound 0.0949 µM, first compound 0.0316 µM) 112% | viability, T/C (second compound 0.0949 µM, first compound 0.1 µM) 99.8% | viability, T/C (second compound 0.0949 µM, first compound 0.316 µM) 94.4% | viability, T/C (second compound 0.0949 µM, first compound 1 µM) 79.9% | viability, T/C (second compound 0.3 µM, first compound 0.00316 µM) 83.3% | viability, T/C (second compound 0.3 µM, first compound 0.01 µM) 88.6% | viability, T/C (second compound 0.3 µM, first compound 0.0316 µM) 101% | viability, T/C (second compound 0.3 µM, first compound 0.1 µM) 87.7% | viability, T/C (second compound 0.3 µM, first compound 0.316 µM) 91% | viability, T/C (second compound 0.3 µM, first compound 1 µM) 81.3%
> 1000 nM: IC50 (second compound 0.000949 µM) | IC50 (second compound 0.003 µM) | IC50 (second compound 0.00949 µM) | IC50 (second compound 0.03 µM) | IC50 (second compound 0.0949 µM) | IC50 (second compound 0.3 µM)
